This note sets out measurements from patent US10779535B2, “Herbicidal compositions comprising 4-amino-3-chloro-5-fluoro-6-(4-chloro-2-fluoro-3-methoxyphenyl) pyridine-2-carboxylic acid or a derivative thereof and tembotrione and/or topramezone” (Dow AgroSciences LLC, priority 2017, dated 2020).

Holding throughout (test): Post-emergence foliar-applied herbicidal mixtures, greenhouse visual weed control
Common to all, as to type: in vivo

Experiment [1] deals with AMAPA (Amaranthus palmeri, Palmer amaranth). The text has this: (§1) Seeds of the desired test plant species were planted in a potting media, Metro-mix 360, a peat based potting soil. Metro-mix consists of 35 to 45% specially processed coconutcoir pith, 10 to 20% horticultural grade vermiculite, 15 to 25% processed ash bark, 20 to 30% choice Canadian sphagnum peat moss and proprietary nutrients and other ingredients. When required to ensure good germination and healthy plants, a fungicide treatment and/or other chemical treatment was applied. The plants were grown for 8-16 days in a greenhouse with an approximate 14 h photoperiod which was maintained at about 29° C. during the day and 26° C. during the night. Nutrients (Peters Excel® 15-5-15 5-Ca 2-Mg and iron chelate) were applied in the irrigation solution as needed and water was added on a regular basis. Supplemental lighting was provided with overhead metal halide 1000-Watt lamps as necessary. The plants were sprayed when they reached the second through fourth true leaf stage.
(§2) Treatments consisted of the benzyl ester of 4-amino-3-chloro-5-fluoro-6-(4-chloro-2-fluoro-3-methoxy-phenyl)pyridine-2-carboxylic acid (II), formulated as an SC (suspension concentrate), GF-2978 containing 125.8 g ai/L of active ingredient, and various herbicidal components alone and in combination. The benzyl ester of formula (II) was applied on an active ingredient basis.
(§3) Other herbicidal components were applied on an active ingredient basis and included 4-hydroxyphenyl pyruvate dioxygenase (HPPD)-inhibiting herbicides tembotrione formulated as Laudis, an SC formulation containing 420 g ai/L of tembotrione, or topramezone formulated as Armezon, an SC formulation containing 335.8 g ai/L of topramezone. All treatments were applied with Prime Oil, (crop oil concentrate) at 1% v/v.
(§4) Treatment requirements were calculated based upon the rates being tested, the concentration of active ingredient or acid equivalent in the formulation, for a 30 ml volume based off of an application rate of 200 L/ha. Appropriate amounts of formulated product as calculated by the software package ARM8 (Gylling Data Management Inc.) were added to 60 ml glass vials and diluted with Indianapolis tap water and Prime Oil at 1% v/v. Treatments were applied with Generation III Research Track-Sprayer manufactured by DeVries Manufacturing in Hollandale, Minn., USA, located in building 306, room E1-483, at the Dow AgroSciences Global headquarters in Indianapolis, Ind. US. The track sprayer was calibrated to deliver 200 L/ha utilizing an 8003E even fan spray nozzle at 40 psi (276 kPa) at a speed of 2 mph (3.25 km/hr) and a spray height of 18 to 20 inches (46 to 50 cm) above average plant canopy height.
(§5) The treated plants and control plants were placed in a greenhouse as described above and watered by sub-irrigation to prevent wash-off of the test compounds. […], the condition of the test plants as compared with that of the untreated plants was determined visually and scored on a scale of 0 to 100 percent where 0 corresponds to no injury or growth inhibition and 100 corresponds to complete kill. The Colby method was used to determine the herbicidal effects expected from the mixtures.

The test system of experiment [2] is ECHCG (Echinochloa crusgalli (L.) Beauv., barnyardgrass).
From the text: as §1, §2, §3, §4, §5

Experiment [3] deals with IPOHE (Ipomoea hederacea (L.) Jacq., ivyleaf morningglory).
From the text: as §1, §2, §3, §4, §5

The test system of experiment [4] is AMARE (Amaranthus retroflexus, redroot pigweed).
From the text: as §1, §2, §3, §4
The treated plants and control plants were placed in a greenhouse as described above and watered by sub-irrigation to prevent wash-off of the test compounds. […] the untreated plants was determined visually and scored on a scale of 0 to 100 percent where 0 corresponds to no injury or growth inhibition and 100 corresponds to complete kill. The Colby method was used to determine the herbicidal effects expected from the mixtures.

Where [5] appears, read: Compound II 2.5 gai/ha, Tembotrione 0 gai/ha.
Where [6] appears, read: Compound II 2.5 gai/ha, Topramezone 0 gai/ha.
Where [7] appears, read: Compound II 5 gai/ha, Topramezone 0 gai/ha.
Where [8] appears, read: Compound II 7.5 gai/ha, Topramezone 0 gai/ha.
Where [9] appears, read: Compound II 15 gai/ha, Topramezone 0 gai/ha.
Setting [10] is: Compound II 0 gai/ha, Tembotrione 46 gai/ha.
The mark [11] stands for this setting: Compound II 0 gai/ha, Topramezone 3 gai/ha.
[12] abbreviates: Compound II 0 gai/ha, Topramezone 6 gai/ha.
Setting [13] is: Compound II 0 gai/ha, Topramezone 24 gai/ha.
[14] abbreviates: Compound II 0 gai/ha, Topramezone 12 gai/ha.

In the case of `COc1c(Cl)ccc(-c2nc(C(=O)OCc3ccccc3)c(Cl)c(N)c2F)c1F` [Compound II, benzyl 4-amino-3-chloro-6-(4-chloro-2-fluoro-3-methoxyphenyl)-5-fluoropyridine-2-carboxylate], the “Visual Weed Control (%) - 12 DAA AMAPA Obs” value was 75% in experiment [1] (setting [5]); 75% in experiment [1] (setting [6]); 73.33% in experiment [1] (Compound II 5 gai/ha, Tembotrione 0 gai/ha); 73.33% in experiment [1] (setting [7]); 85% in experiment [1] (setting [8]); 80% in experiment [1] (Compound II 15 gai/ha, Tembotrione 0 gai/ha). In experiment [1] (setting [9]), the “Visual Weed Control (%) - 12 DAA AMAPA Obs” value was determined as 80%. In addition, the “Visual Weed Control (%) - 5 DAA ECHCG Obs” value in experiment [2] (setting [5]) is 22.5%; in experiment [2] (setting [6]), 22.5%; in experiment [2] (setting [7]), 53.75%; in experiment [2] (setting [8]) it was 55%; in experiment [2] (setting [9]), 65%. Moreover, the entries for the “Visual Weed Control (%) - 12 DAA ECHCG Obs” value in experiment [2] (setting [7]) and in experiment [2] (setting [8]) were 61.25% and 70.75%, respectively. Further, the “Visual Weed Control (%) - 5 DAA IPOHE Obs” value in experiment [3] (setting [6]) came out at 51.25%; in experiment [3] (setting [7]), 62.5%; in experiment [3] (setting [8]) it was 61.25%; in experiment [3] (setting [9]), 55.75%. For the same molecule, the “Visual Weed Control (%) - 5 DAA AMARE Obs” value in experiment [4] (setting [9]) was determined as 73%. Also, the “Visual Weed Control (%) - 12 DAA AMARE Obs” value in experiment [4] (setting [5]) came out at 61.25%; in experiment [4] (setting [6]), 61.25%; in experiment [4] (setting [7]), 65.75%; in experiment [4] (Compound II 7.5 gai/ha, Tembotrione 0 gai/ha), 75%; in experiment [4] (setting [8]), 75%.

`CS(=O)(=O)c1ccc(C(=O)C2C(=O)CCCC2=O)c(Cl)c1COCC(F)(F)F` [Tembotrione, 2-[2-chloro-4-(methylsulfonyl)-3-[(2,2,2-trifluoroethoxy)methyl]benzoyl]-1,3-cyclohexanedione]: the “Visual Weed Control (%) - 12 DAA AMAPA Obs” value in experiment [1] (Compound II 0 gai/ha, Tembotrione 5.75 gai/ha) is given as 44.33%; in experiment [1] (Compound II 0 gai/ha, Tembotrione 11.5 gai/ha) it was 50%; in experiment [1] (Compound II 0 gai/ha, Tembotrione 23 gai/ha), 66%. In experiment [2] (setting [10]), the “Visual Weed Control (%) - 5 DAA ECHCG Obs” value is listed as 57.5%. Also, the “Visual Weed Control (%) - 12 DAA AMARE Obs” value in experiment [4] (setting [10]) was found to be 43.75%.

Regarding `Cc1c(C(=O)c2cnn(C)c2O)ccc(S(C)(=O)=O)c1C1=NOCC1` [Topramezone, [3-(4,5-dihydro-3-isoxazolyl)-2-methyl-4-(methylsulfonyl)phenyl](5-hydroxy-1-methyl-1H-pyrazol-4-yl)methanone], the “Visual Weed Control (%) - 12 DAA AMAPA Obs” value in experiment [1] (setting [11]) is given as 86.67%; in experiment [1] (setting [12]), 75%. In addition, the “Visual Weed Control (%) - 5 DAA ECHCG Obs” value in experiment [2] (setting [11]) is on record as 0.75%; in experiment [2] (setting [12]), 6.25%; in experiment [2] (setting [13]) it was 51.25%. The entries for the “Visual Weed Control (%) - 12 DAA ECHCG Obs” value in experiment [2] (setting [11]), in experiment [2] (setting [12]) and in experiment [2] (setting [14]) were 0%, 1.25% and 36.25%, respectively. The “Visual Weed Control (%) - 5 DAA IPOHE Obs” value turned out to be 6.25% in experiment [3] (setting [11]), 6.25% in experiment [3] (setting [12]), 8.75% in experiment [3] (setting [14]) and 33.25% in experiment [3] (setting [13]). Moreover, in experiment [4] (setting [13]), the “Visual Weed Control (%) - 5 DAA AMARE Obs” value worked out at 50.75%. Besides, the “Visual Weed Control (%) - 12 DAA AMARE Obs” value in experiment [4] (setting [12]) worked out at 52.5%; in experiment [4] (setting [14]) it was 77.5%.
